Data published in US20250034139A1, “AMINE COMPOUNDS HAVING ANTI-INFLAMMATORY, ANTIFUNGAL, ANTIPARASITIC, AND ANTICANCER ACTIVITY” (PHARMA CINQ, LLC, priority 2013, published 2025).
Values after ≈ are worked out from the molar mass of the structure shown. Where two headings read alike, the source gives them in different places. Values belong to the molecule of their own block, whether it stands above or below them.

What was measured:
S. cerevisiae = assay: Example I: Saccharomyces cerevisiae growth inhibition (OD 600 nm); type: cell-based; settings: 18 hour incubation at 30° C., OD 600 nm, XLfit
Protocol: An overnight culture of S. cerevisiae was dilution in YPD broth to concentration of 40,000/ml and 150 μl/well was plated in 96 well plates. Compounds were then added to each well with concentration ranged from 4 to 50 μM as final concentration. The plates were inoculated at 30° C. overnight with shaking at 220 rpm and absorbance at 600 nm was read after 18 hour incubation.
• 1. One days prior to the inoculum preparation, pick a single colony of S. cerevisiae from the Sabouraud Dextrose Agar plate using the inoculum loop and inoculate into a 50 mL tube containing 10 ml of YPD growth medium • 2. Incubate at 30° C. with shaking at 220 rpm for 24 hours with loosen lid to allow air in and facilitates growth. • 3. Examine an aliquot of the culture under a microscope for yeast cell morphology and lack of bacterial contamination. • 4. Dilute the overnight culture with YPD medium at 1:30 dilution (70 ul to 2.1 ml) and count the number of cells as 4,230,000/ml. • 5. Mix 620 μl of 1:30 dilution and 64.4 ml YPD to make final concentration of 40,000/ml cells • 6. Plated 144 μl/well in four 96-well plates.
• 1. From 10 mM DMSO stock solutions, make serial dilutions of compounds to 0.1, 0.2, 0.3, 0.63 and 1.25 mM solutions • 2. Add 6 μl each of diluted compound solutions per well in duplicates. The final concentrations were 0, 4, 8, 12, 25 and 50 micromolar. • 3. Incubated all plates at 30 C for overnight (˜18 hours) with 220 rpm shaking. • 4. Read absorbance at OD600 for each plate on Spectra Max Plus plate reader. • 5. Calculate the % inhibition of each compound against the DMSO treated cell and plotted.

[1] = system: Cryptococcus neoformans (serotype A); assay: Example L: Cryptococcus neoformans (serotype A) growth inhibition; type: cell-based; settings: OD of 26 hour reading, 30° C., XLfit; for IC50: read-out: IC50, uM (concentration for 50% of inhibition)
Protocol: Cryptococcus neoformans (serotype A) were plated in 96 well plates with 144 μl/well of 5×10e5 CFU/ml in YPD growth medium. Diluted compounds were then added to each well with concentration ranged from 0.05 to 10 μM as final concentration in duplicates. The plates were inoculated at 30° C. Two readings of OD at 600 nm were measured after 18 hr and […] treatments.
C12-imidazol had relative weak activity against Cryptococcus serotype A at low concentration. Data plotted was based on 26 hour reading because 18 hour reading was too low.
• 1. Pick a single colony of Cryptococcus from the Sabouraud Dextrose agar plate using the inoculum loop and inoculate into a 125 ml flask containing 25 ml of YPD growth medium • 2. Incubate at 30° C. with shaking at 220 rpm for 24 hours with loosen lid to allow air in and facilitates growth. • 3. Examine an aliquot of the culture under a microscope for yeast cell morphology and lack of bacterial contamination. • 4. Dilute the overnight culture with YPD medium at 1:100 dilution and count the number of cells as 8×10^6 cfu/ml. • 5. Make a final concentration of cells suspension at 5×10^5 cfu/ml in YPD medium after the stock culture had been stored at 4° C. for 3 days. • 6. Plate 144 μl/well of 5×10^5 cfu/ml cell suspension on 96-well plates. Part-II: Cryptococcus Growth Inhibition Testing with Compounds • 1. From 10 mM DMSO stock solutions, make serial dilutions of compounds to 0.0013, 0.0025, 0.0125, 0.025, 0.05, 0.125 and 0.25 mM solution • 2. Add 6 ul each of diluted compound solutions per well in duplicates. The final concentrations were 0, 0.05, 0.1, 0.5, 1.0, 2.0, 5.0 and 10 micromolar. • 3. Incubated all plates at 30° C. overnight with 175 rpm shaking. • 4. Read absorbance at OD600 after 18 and 26 hours for each plate. • 5. Calculated the % inhibition and IC50 of each compound against the untreated cell.

[2] = system: Cryptococcus neoformans (serotype D); assay: Example K: Cryptococcus neoformans (serotype D) growth inhibition; type: cell-based; settings: OD of 48 hour reading, 37° C., tested 4 to 60 μM, XLfit; for IC50: read-out: IC50 (concentration for 50% of inhibition)
Protocol: Cryptococcus neoformans (serotype D) were plated in 96 well plates with 144 μl/well of 8×10e5 CFU/ml in YM growth medium. Diluted compounds were then added to each well with concentration ranged from 4 to 60 μM as final concentration in duplicates. The plates were inoculated at 37° C. for total of 48 hours. Two readings of OD at 600 nm were measured after 30 and 48 hour treatments.
• 1. Pick a single colony of Cryptococcus from the YM agar plate using the inoculum loop and inoculate into a 125 ml flask containing 25 ml of YM growth medium. • 2. Incubate at 37° C. with shaking at 220 rpm for 24 hours with loosen lid to allow air in and facilitates growth. • 3. Examine an aliquot of the culture under a microscope for yeast cell morphology and lack of bacterial contamination. • 4. Dilute the overnight culture with YM medium at 1:100 dilution and count the number of cells as 1×10^6 cfu/ml. • 5. Make a final concentration of cells suspension at 8×10^5 cfu/ml in YM medium. • 6. Plate 144 μl/well of 8×10^5 cfu/ml cell suspension on 96-well plates. Part-II: Cryptococcus Growth Inhibition Testing with Compounds • 1. From 10 mM DMSO stock solutions, make serial dilutions of compounds to 0.1, 0.2, 0.3, 0.5, 1.0 and 1.5 mM solution. • 2. Add 6 ul each of diluted compound solutions per well in duplicates. The final concentrations were 0, 4, 8, 12, 20, 40 and 60 micromolar. • 3. Incubated all plates at 37° C. overnight (30 hours) with 150 rpm shaking. • 4. Read absorbance at OD600 for each plate. • 5. Leave plates in 37° C. incubator for another day and read absorbance at OD600 again at 48 hours to ensure the inhibitory effect of the compounds. • 6. Calculated the % inhibition and IC50 of each compound against untreated cells.

Trichophyton rubrum = assay: Example J: Trichophyton rubrum growth inhibition, scoring by eye; type: cell-based; settings: 6 days at 30° C., tested 6 to 40 μM; read-out: MIC, μM (maximum inhibition concentration, scoring by eye)
Protocol: Trichophyton grown on two agar plates were collected by scraping into 10 ml saline and filtered through 8 μm filters. […] This experiment included some active compounds from previous experiment and added several untested compounds. […] Following table listed the maximum inhibition concentration (MIC) based on scoring by eye. Scrape frozen Trichophyton culture from ATCC vial and suspended in 100 μl PDB, and then plate on a PDA plate. Incubate plate at 30 C for 4 days. The plate was covered almost full. […] Take OD of collected solution at 520 nm and 600 nm: […] Part-II: […] Add 6 μl each of diluted compound solutions per well in triplicates. […] Wrap the plates with […] incubate all plates at 30° C. for 6 days. • Take picture of the plates on KODAK imager with 17 captures of 1.5 sec/capture for total of 25.5 second exposure.

[3] = system: PC3 human prostate cancer cells; assay: Example S: in vitro anticancer screen, PC-3 cells, Wst1; type: cell-based; settings: Homo sapiens, PC-3, 20 h, read-out: PC-3, percent of cancer cell survival relative to vehicle treated cells
Method in brief: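 Values give percent survival relative to vehicle, read by Wst1 absorbance (450/630 nm) after 2 h dye incubation, in triplicate. Cells were seeded at 2×10^4/well and treated about 20 h with compound at 0.4, 0.5 or 2.5 μM, depending on compound.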

THP-1 cells = assay: Example D: LPS-triggered THP-1 cell death assay, acute/5-hour and chronic/48-hour; type: cell-based, Human; settings: for Viable cell percent change, Chronic/48-hour, Mean: 10 ng/ml LPS, 0.1 μM test compound
Protocol: Compounds of the invention were tested at 0.1 μM versus AC in the LPS-triggered THP-1 cell death assay. Both acute/5-hour and chronic/48-hour phases of cell death were assessed. Compounds were screened in batches with DMSO as the negative control and AC as the high activity control.

[4] = system: 4T1 mouse mammary breast cancer cells; assay: Example O: syngeneic 4T1 breast cancer growth in Balb/C mice; type: in vivo; settings: 4T1 in female Balb/C mice
Protocol: Cancer models in mice generally either involve syngeneic murine tumors in immunocompetent mice or xenografts of human tumors in immunocompromised mice. […] Mice received test compounds by oral gavage in 1% hydroxypropylmethylcellulose from day 2 until day 30. Tumor growth was assessed by caliper measurements twice per week and tumor weight after necropsy, and body weight was also monitored. Treatment groups were: • 1. […] HPMC) • 2. CI (120 μmol/kg/day) • 3. BA (120 μmol/kg/day) • 4. CP (120 μmol/kg/day) • 5. CQ (120 μmol/kg/day) • 6. AA (120 μmol/kg/day) • 7. AC (120 μmol/kg/day)

[5] = system: PC-3 prostate cancer cells; assay: Example T: sensitisation of PC-3 cells to doxorubicin, oxaliplatin, paclitaxel or vincristine, Wst1; type: cell-based, human
[6] = system: 4T1 murine breast cancer cells; assay: Example S: in vitro anticancer screen, 4T1 cells, Wst1; type: cell-based, mouse; settings: Mus musculus, 4T1, 18 h
Method in brief: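 Read-out is Wst1 absorbance (450 nm, reference 630 nm) after roughly 2 hr dye incubation, giving percent cell survival versus vehicle. Before that, compounds at 1 μM or 5 μM were applied for 18 hr to 4T1 cells plated at 1×10^4 per well.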

MIC, uM (99% of inhibition of fungal growth) (S. cerevisiae): 29.04 µM
IC50 (S. cerevisiae; read-out: IC50, uM (50% inhibition of fungal growth)): 15.2 µM
MIC, uM (concentration for maximum - 99% of inhibition) [1]: 10.83 µM
IC50 [1]: 3.67 µM
MIC (concentration for maximum-99% of inhibition) [2]: 20.54
IC50 [2]: 1.81 µM
MIC (Trichophyton rubrum): 18 µM (≈ 4.26 µg/mL)
SMILES: CCCCCCCCCCCCn1ccnc1 [Compound C12-Im, reference compound]

SMILES: CCCCOCCCCCCCCNc1ccnc2ccccc12 [CI, N-(8-Butoxyoctyl)quinolin-4-amine]
viability at 0.4 µM [3]: 77.9%
Viable cell percent change, Chronic/48-hour, Mean (THP-1 cells): 28.46%
activity relative to AC in the LPS-triggered THP-1 cell death assay, in words (THP-1 cells; 0.1 μM, 5-hour and 48-hour time points): equivalent activity to AC at both the 5-hour and 48-hour time points
Final Tumor Volume ([4]; 120 μmol/kg/day oral gavage, day 2 to day 30): 702 ± 244 mm^3
Δ BW % ([4]; 120 μmol/kg/day oral, final vs initial body weight): −5.5%
Final Body Weight ([4]; 120 μmol/kg/day oral, final, in g (unit assumed)): 20.6 ± 0.6
Initial Body Weight ([4]; 120 μmol/kg/day oral, initial (baseline)): 21.8 ± 0.8 g
viability at 0.4 µM ([5]; Homo sapiens, PC-3, 72 h, read-out: No Chemo: percent cell survival): 77.9%
Doxorubicin 3.5 μM: percent cell survival ([5]; PC-3 cells, compound 0.4 μM + doxorubicin 3.5 μM, 72 hours, chemotherapy agent alone normalized to 100%): 67.6%
Oxaliplatin 100 μM: percent cell survival ([5]; PC-3 cells, compound 0.4 μM + oxaliplatin 100 μM, 72 hours, chemotherapy agent alone normalized to 100%): 21.8%
Paclitaxel 50 μM: percent cell survival ([5]; PC-3 cells, compound 0.4 μM + paclitaxel 50 μM, 72 hours, chemotherapy agent alone normalized to 100%): 48.7%
Vincristine 100 nM: percent cell survival ([5]; PC-3 cells, compound 0.4 μM + vincristine 100 nM, 72 hours, chemotherapy agent alone normalized to 100%): 33.8%
viability at 1 µM ([6]; read-out: 4T1 1 μM, percent of cancer cell survival relative to vehicle treated cells): 28.3%
viability at 5 µM ([6]; read-out: 4T1 5 μM, percent of cancer cell survival relative to vehicle treated cells): 19.1%

IC50 ([1]; Cryptococcus neoformans): 3.73 µM
MIC ([1]; Cryptococcus neoformans, read-out: MIC, uM (concentration for maximum - 99% of inhibition)): 56.1 µM (≈ 22 µg/mL)
IC50 ([2]; Cryptococcus deneoformans): 1.03 µM
SMILES: CCCCCCCCCCOc1ccc(CNc2ncnc3ccccc23)cc1 [BN, N-[4-(Decyloxy)benzyl]quinazolin-4-amine]
Viable cell percent change, Chronic/48-hour, Mean (THP-1 cells): 60.91%
